Assay results as given in ChEMBL document CHEMBL3616419, “Synthesis, structure-activity relationship and biological evaluation of novel nitrogen mustard sophoridinic acid derivatives as potential anticancer agents” (Bioorg Med Chem Lett, 2015).
Converted amounts (≈) assume the structure as drawn.

Legend:
[1] = tested on: HepG2; test: Antiproliferative activity against human HepG2 cells incubated for 48 hrs by MTT assay; type: functional, cell-based; settings: HepG2, 48 h
[2] = Stability of the compound; type: physicochemical
[3] = Antitumor activity against […] HepA cells xenografted in KM mouse assessed as inhibition of tumor weight at 36 mg/kg, iv dosed for 10 days relative to untreated control; type: functional; settings: 240 h, read-out: TGI
[4] = Antitumor activity against […] HepA cells xenografted in KM mouse assessed as inhibition of tumor weight at 72 mg/kg, iv dosed for 10 days relative to untreated control; type: functional; settings: 240 h, read-out: TGI
[5] = Antitumor activity against […] HepA cells xenografted in KM mouse assessed as inhibition of tumor weight at 18 mg/kg, iv dosed for 10 days relative to untreated control; type: functional; settings: 240 h, read-out: TGI
[6] = tested on: Mus musculus; test: Toxicity in […] HepA cells xenografted KM mouse assessed as reduction in body weight at 18 to 72 mg/kg, iv dosed for 10 days relative to untreated control; type: organism-based; set-up: scale not given: the % may be the effect or the level left; settings: in vivo, 240 h

| SMILES | IC50 [1] | Stability [2] | further results |
| --- | --- | --- | --- |
| COC(=O)CCC[C@@H]1NC[C@H]2CCCN3CCC[C@H]1[C@H]23 | 1650 µg/mL (≈ 5890 µM) | – | – |
| CCOC(=O)CCC[C@@H]1NC[C@H]2CCCN3CCC[C@H]1[C@H]23 | 223 µg/mL (≈ 757 µM) | – | – |
| CCCOC(=O)CCC[C@@H]1NC[C@H]2CCCN3CCC[C@H]1[C@H]23 | 196 µg/mL (≈ 635 µM) | – | – |
| CC(C)OC(=O)CCC[C@@H]1NC[C@H]2CCCN3CCC[C@H]1[C@H]23 | 93.1 µg/mL (≈ 302 µM) | – | – |
| CCCCOC(=O)CCC[C@@H]1NC[C@H]2CCCN3CCC[C@H]1[C@H]23 | 136 µg/mL (≈ 421 µM) | – | – |
| COC(=O)CCC[C@H]1[C@H]2CCCN3CCC[C@H](CN1C(=O)c1ccc(N(CCCl)CCCl)cc1)[C@@H]23 | 167 µg/mL (≈ 319 µM) | Unstable | – |
| CCOC(=O)CCC[C@H]1[C@H]2CCCN3CCC[C@H](CN1C(=O)c1ccc(N(CCCl)CCCl)cc1)[C@@H]23 | 91.2 µg/mL (≈ 169 µM) | Unstable | – |
| CCCOC(=O)CCC[C@H]1[C@H]2CCCN3CCC[C@H](CN1C(=O)c1ccc(N(CCCl)CCCl)cc1)[C@@H]23 | 44.6 µg/mL (≈ 80.7 µM) | Unstable | – |
| CC(C)OC(=O)CCC[C@H]1[C@H]2CCCN3CCC[C@H](CN1C(=O)c1ccc(N(CCCl)CCCl)cc1)[C@@H]23 | 2.39 µg/mL (≈ 4.33 µM) | Unstable | – |
| CCCCOC(=O)CCC[C@H]1[C@H]2CCCN3CCC[C@H](CN1C(=O)c1ccc(N(CCCl)CCCl)cc1)[C@@H]23 | 25 µg/mL (≈ 44.1 µM) | Unstable | – |
| O=C(CCC[C@H]1[C@H]2CCCN3CCC[C@H](CN1Cc1ccccc1)[C@@H]23)Nc1ccc(N(CCCl)CCCl)cc1 | 0.47 µg/mL (≈ 0.822 µM) | – | inhibition in vivo at 36 mg/kg [3]: 47.3%; inhibition in vivo at 72 mg/kg [4]: 58.2%; inhibition in vivo at 18 mg/kg [5]: 42.5%; Activity [6]: <= 20% |
| O=C(CCC[C@H]1[C@H]2CCCN3CCC[C@H](CN1Cc1ccccc1)[C@@H]23)OCc1ccc(N(CCCl)CCCl)cc1 | 1.63 µg/mL (≈ 2.78 µM) | – | – |
| O=C(CCC[C@H]1[C@H]2CCCN3CCC[C@H](CN1Cc1ccccc1)[C@@H]23)N(CCCl)CCCl | 2.74 µg/mL (≈ 5.7 µM) | – | – |
| N[C@@H](Cc1ccc(N(CCCl)CCCl)cc1)C(=O)O [MELPHALAN] | 0.41 µg/mL (≈ 1.34 µM) | – | – |
| O=C1CCC[C@@H]2[C@H]3CCCN4CCC[C@H](CN12)[C@@H]34 [SOPHORIDINE] | 1160 µg/mL (≈ 4670 µM) | – | – |
